Results as given in US20100184683A1, “ANTIBACTERIAL AND ANTIFUNGAL PEPTIDES” (C3 JIAN, INC., priority 2009, published 2010).
Converted amounts (≈) assume the structure as drawn. Peptide text beside a SMILES is read from it.

Assays:
T. rubrum = format: cell-based, Trichophyton rubrum
Method in brief: (§1)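 Minimum inhibitory concentration was determined separately for each organism, using media and growth conditions chosen for that organism.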

S. epidermidis = format: cell-based
Method in brief: as §1

MRSA = format: cell-based, Methicillin-resistant Staphylococcus aureus
Method in brief: as §1

C. albicans = format: cell-based, Candida albicans
Method in brief: as §1

A. niger = format: cell-based, Aspergillus niger
Protocol: (§2) In certain embodiments the MIC assays are performed as described herein in the Examples. For each organism, the media and growth conditions utilized is detailed in Table 8.
(§3) In certain embodiments the MIC assays are performed as follows: For each organism, the media and growth conditions utilized is detailed in Table 8.

E. faecalis = format: cell-based, Enterococcus faecalis
Protocol: as §2, §3

B. subtilis = format: cell-based, Bacillus subtilis
Method in brief: as §1

MIC (T. rubrum): 0.78 µM (≈ 2.72 µg/mL)
MIC (S. epidermidis): 0.39 µM (≈ 1.36 µg/mL)
MIC (MRSA): 1.56 µM (≈ 5.44 µg/mL)
MIC (C. albicans): 1.56 µM (≈ 5.44 µg/mL)
MIC (A. niger): 3 µM (≈ 10.5 µg/mL)
MIC (E. faecalis): 3.13 µM (≈ 10.9 µg/mL)
MIC (B. subtilis): 0.78 µM (≈ 2.72 µg/mL)
SMILES: CC[C@H](C)[C@H](NC(=O)[C@H](C)NC(=O)[C@H](CO)NC(=O)[C@H](CC(=O)O)NC(=O)[C@H](Cc1ccc(O)cc1)NC(=O)[C@H](C)NC(=O)[C@@H](NC(=O)[C@H](CC(C)C)NC(=O)[C@H](C)NC(=O)[C@H](CC(C)C)NC(=O)[C@H](CO)NC(=O)CNC(=O)[C@H](Cc1ccccc1)NC(=O)[C@H](CCCNC(=N)N)NC(=O)[C@@H](N)CCSC)C(C)C)C(=O)N[C@@H](CCCCN)C(=O)N[C@@H](Cc1c[nH]cn1)C(=O)N[C@@H](CO)C(=O)N[C@@H](Cc1c[nH]c2ccccc12)C(=O)N1CCC[C@H]1C(=O)N[C@@H](CCCNC(=N)N)C(=O)N1CCC[C@H]1C(=O)N[C@@H](CO)C(=O)N[C@@H](CO)C(=O)N[C@H](C(=O)N[C@@H](CCCNC(=N)N)C(=O)N[C@@H](CCCNC(=N)N)C(=O)N[C@@H](CC(C)C)C(=O)N[C@@H](CCCNC(=N)N)C(=O)N[C@@H](CCSC)C(=O)O)C(C)C [PF-672] (H-MRFGSLALVAYDSAIKHSWPRPSSVRRLRM-OH; N-terminus and C-terminus assumed)
